The record followed here is patent EP4678629A1, “IONIZABLE LIPID MOLECULE, PREPARATION METHOD THEREFOR AND USE THEREOF” (Maxirna (Shanghai) Pharmaceutical Co., Ltd., priority 2023, dated 2024).

A short description of series [1]: Size and polydispersity index (PDI) of the lipid nanoparticle by dynamic light scattering. Conditions: LNP encapsulating eGFP mRNA, ionizable lipid/DOPE/cholesterol/DMG-PEG2000 50/10/48.25/1.25 mol%, N/P 12; for Particle size: in nm (unit assumed). The series is classed as physicochemical. Summed up: (§1)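 LNPs were made by microfluidic mixing of ionizable lipid/DOPE/cholesterol/DMG-PEG2000 (50/10/48.25/1.25 mol%) in ethanol with eGFP mRNA in 20 mM citrate pH 6.1, N/P 12, then ultrafiltered into DPBS and 0.2 µm filtered. Size and PDI by DLS at 173° backscatter; encapsulation by Ribogreen.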

Series [2] in a line: Encapsulation efficiency of the lipid nanoparticle (eGFP mRNA) by Ribogreen method. The series is classed as physicochemical. As to conditions: LNP encapsulating eGFP mRNA, ionizable lipid/DOPE/cholesterol/DMG-PEG2000 50/10/48.25/1.25 mol%, N/P 12. Summed up:
as §1

The nature of series [3]: In vitro transfection of cells with eGFP-mRNA lipid nanoparticle (LNP preparation), fluorescence imaging and flow cytometry. As to conditions: mouse, dc2.4 cells, 200 ng of mRNA per well, after 24 hours; read-out: Cell viability, %. Format: cell-based, mouse. The method in brief: (§2)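 Mouse bone marrow-derived DC2.4 dendritic cells seeded at 2 × 10^5 cells/well in DMEM with 10% FBS, transfected with eGFP-mRNA LNPs the next day at 37 °C, 5% CO2. After 24 hours, viability, eGFP-positive rate and mean fluorescence intensity read by fluorescence imaging and flow cytometry.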

In the next series the test system is DC2.4 cells. Described as above. The series is classed as cell-based, mouse. As to conditions: eGFP positivity rate, DC2.4 cells, 200 ng of mRNA per well, after 24 hours. The method in brief:
as §2

`CCCCC/C=C\C/C=C\CCCCCCCCOC(=O)CCCCCCCN(CCCO)CCCN(CCCCCCCC(=O)OCCCCCCCC/C=C\C/C=C\CCCCC)CCCCCCCC(=O)OCCCCCCCC/C=C\C/C=C\CCCCC` [Example 95] displayed a PDI in series [1] of 0.11. In series [2], the “Encapsulation rate, %” value amounted to 92.93%. For the same compound, the viability at 24 h in series [3] is 95.9%. Also, in the series with DC2.4 cells, the “Positive rate, %” value came out at 93.13%.
In series [1], `CCCCCCCCCCCOC(=O)CCCN(CCO)CCCCN(CCCC(=O)OCCCCCCCCCCC)CCCC(=O)OCCCCCCCCCCC` [Example 87] showed a PDI of 0.12 and a Particle size of 72.55. Also, the “Encapsulation rate, %” value in series [2] came out at 92.26%. Also, in series [3], the viability at 24 h was determined as 97.5%. For the same compound, the “Positive rate, %” value with DC2.4 cells was 96.15%.
In the same order, the values of `CCCCCCCCCCCCCOC(=O)CCCN(CCO)CCCN(CCCC(=O)OCCCCCCCCCCCCC)CCCC(=O)OCCCCCCCCCCCCC` [Example 62, Ditridecyl 4,4'-((3-((2-hydroxyethyl)(4-oxo-4-(tridecyloxy)butyl)amino)propyl)azanediyl)dibutanoate] are 0.16, 99.80, 99.32%, 59% and 96.24%.
In the same order, the values of `CCCCC/C=C\C/C=C\CCCCCCCCOC(=O)CCCCCCN(CCCO)CCCN(CCCCCCC(=O)OCCCCCCCC/C=C\C/C=C\CCCCC)CCCCCCC(=O)OCCCCCCCC/C=C\C/C=C\CCCCC` [Example 114] are 0.16, 89.25, 92.78%, 93.4% and 91.74%.
For `CCCCCCCCCCCCCOC(=O)CCCCCCCN(CCO)CCCN(CCCCCCCC(=O)OCCCCCCCCCCCCC)CCCCCCCC(=O)OCCCCCCCCCCCCC` [Example 13, Ditridecyl 8,8'-((3-((2-hydroxyethyl)(8-oxo-8-(tridecyloxy)octyl)amino)propyl)azanediyl)dioctanoate], the PDI in series [1] was found to be 0.21. The “Encapsulation rate, %” value in series [2] is 96.34%. Further, the viability at 24 h in series [3] turned out to be 91.3%. In addition, the “Positive rate, %” value in the series on DC2.4 cells turned out to be 93.23%.
As for `CCCCCCCCCCCOC(=O)CCCCCCN(CCCCO)CCCN(CCCCCCC(=O)OCCCCCCCCCCC)CCCCCCC(=O)OCCCCCCCCCCC` [Example 37], in series [1], the PDI was found to be 0.15 and the Particle size is 77.57. Also, the “Encapsulation rate, %” value in series [2] came out at 99.26%. Besides, in series [3], the viability at 24 h was determined as 96.6%. Also, the “Positive rate, %” value in the series on DC2.4 cells came out at 89.37%.
On to `CC/C=C\C/C=C\CCCOC(=O)CCCCCCCN(CCO)CCCN(CCCCCCCC(=O)OCCC/C=C\C/C=C\CC)CCCCCCCC(=O)OCCC/C=C\C/C=C\CC` [Example 7, Di((4Z,7Z)-dec-4,7-dien-1-yl)8,8'-((3-((8-(((4Z,7Z)-dec-4,7-dien-1-yl)oxo)-8-oxooctyl)(2-hydroxyethyl)amino)propyl)azanediyl)dioctanoate], for which the PDI in series [1] amounted to 0.09. For the same compound, in series [2], the “Encapsulation rate, %” value was found to be 86.64%. For the same compound, in series [3], the viability at 24 h amounted to 76.9%. The “Positive rate, %” value in the series with DC2.4 cells is 75.68%.
In the case of `CCCCCCCCCCCOC(=O)CCCCCCCN(CCCCO)CCCN(CCCCCCCC(=O)OCCCCCCCCCCC)CCCCCCCC(=O)OCCCCCCCCCCC` [Example 20, Diundecyl 8,8'-((3-((4-hydroxybutyl)(8-oxo-8-(undecyloxy)octyl)amino)propyl)azanediyl)dioctanoate], in series [1], the PDI came out at 0.18 and the Particle size turned out to be 89.98. In series [2], the “Encapsulation rate, %” value is 79.02%. Moreover, the viability at 24 h in series [3] was 83.8%. Further, in the series with DC2.4 cells, the “Positive rate, %” value worked out at 93.27%.
In series [1], `CCCCCCCCCCCOC(=O)/C=C/CN(C/C=C/C(=O)OCCCCCCCCCCC)CCCN(C/C=C/C(=O)OCCCCCCCCCCC)CCCO` [Example 106] registered a PDI of 0.28. Besides, the “Encapsulation rate, %” value in series [2] came to 65.99%. Also, the viability at 24 h in series [3] was determined as 93.9%. Further, the “Positive rate, %” value in the series on DC2.4 cells was determined as 78.77%.
As to `CCCCCCCCCCCOC(=O)CN(CCCCO)CCCN(CC(=O)OCCCCCCCCCCC)CC(=O)OCCCCCCCCCCC` [Example 75, Diundecyl 2,2'-((3-((4-hydroxybutyl)(2-oxo-2-(undecyloxy)ethyl)amino)propyl)azanediyl)diacetate], in series [1], the PDI is on record as 60.95 and the Particle size was found to be 99.22. Besides, in series [2], the “Encapsulation rate, %” value is 99.22%. In addition, the viability at 24 h in series [3] stood at 90.3%. The “Positive rate, %” value with DC2.4 cells is listed as 91.29%.
As for `CCCCCCCCCCCCCOC(=O)CCCCCCN(CCO)CCCN(CCCCCCC(=O)OCCCCCCCCCCCCC)CCCCCCC(=O)OCCCCCCCCCCCCC` [Example 33], the PDI in series [1] is 0.13. Besides, the “Encapsulation rate, %” value in series [2] is reported as 98.96%. In series [3], the viability at 24 h was determined as 96.4%. In the series with DC2.4 cells, the “Positive rate, %” value was determined as 95.18%.
In turn, `CCCCCCCCCCCCCOC(=O)CCCCCN(CCCO)CCCN(CCCCCC(=O)OCCCCCCCCCCCCC)CCCCCC(=O)OCCCCCCCCCCCCC` [Example 30, 6,6'-((3-((3-hydroxypropyl)(6-oxo-6-(tridecyloxy)hexyl)amino)propyl)azadiyl)ditridecyl dihexanoate] returned a PDI in series [1] of 0.09. The “Encapsulation rate, %” value in series [2] is recorded as 99.66%. In addition, in series [3], the viability at 24 h was found to be 96.9%. Also, the “Positive rate, %” value in the series on DC2.4 cells stood at 96.41%.
`CCCCCCCCCCCOC(=O)CN(CCCO)CCCN(CC(=O)OCCCCCCCCCCC)CC(=O)OCCCCCCCCCCC` [Example 74, Diundecyl 2,2'-((3-((3-hydroxypropyl)(2-oxo-2-(undecyloxy)ethyl)amino)propyl)azanediyl)diacetate] returned a Particle size in series [1] of 96.91. The “Encapsulation rate, %” value in series [2] worked out at 96.91%. Moreover, the viability at 24 h in series [3] was found to be 71%. The “Positive rate, %” value in the series with DC2.4 cells worked out at 91.81%.
The compound `CCCCCCCCCCCCCOC(=O)CCCN(CCCO)CCCCN(CCCC(=O)OCCCCCCCCCCCCC)CCCC(=O)OCCCCCCCCCCCCC` [Example 101, 4,4'-ditridecyl((4-((3-hydroxypropyl)(4-oxo-4-(tridecyloxy)butyl)amino)butyl)azetidinyl)dibutanoate] displayed a PDI in series [1] of 0.14. The “Encapsulation rate, %” value in series [2] is on record as 92.68%. Besides, the viability at 24 h in series [3] came out at 93.4%. The “Positive rate, %” value in the series on DC2.4 cells came out at 94.85%.
In series [1], `CCCCCCCCCCOC(=O)CCCN(CCCO)CCCN(CCCC(=O)OCCCCCCCCCC)CCCC(=O)OCCCCCCCCCC` [Example 113, Didecyl 4,4'-((3-((4-(decyloxy)-4-oxobutyl)(3-hydroxypropyl)amino)propyl)azetidinyl)dibutanoate] returned a PDI of 0.14 and a Particle size of 88.62. The “Encapsulation rate, %” value in series [2] worked out at 91.23%. In addition, the viability at 24 h in series [3] was 93.2%. The “Positive rate, %” value in the series on DC2.4 cells amounted to 92.51%.
As for `CCCCCCCCCCCOC(=O)CCCCCCCCCN(CCO)CCCN(CCCCCCCCCC(=O)OCCCCCCCCCCC)CCCCCCCCCC(=O)OCCCCCCCCCCC` [Example 14, Diundecyl 10,10'-((3-((2-hydroxyethyl)(10-oxo-10-(undecyloxy)decyl)amino)propyl)azanediyl)dicaprate], in series [1], the PDI is given as 0.21 and the Particle size is given as 98.45. For the same compound, the “Encapsulation rate, %” value in series [2] is given as 97.23%. Also, the viability at 24 h in series [3] was 97.9%. Moreover, in the series on DC2.4 cells, the “Positive rate, %” value is 95.61%.
Take `CCCCCCCCCOC(=O)CCCCCCCN(CCO)CCCN(CCCCCCCC(=O)OCCCCCCCCC)CCCCCCCC(=O)OCCCCCCCCC` [Example 9, Dinonyl 8,8'-((3-((2-hydroxyethyl)(8-(nonoxy)-8-oxooctyl)amino)propyl)azanediyl)dioctanoate]: the PDI in series [1] is listed as 0.22. For the same compound, in series [2], the “Encapsulation rate, %” value is 78.69%. Besides, in series [3], the viability at 24 h is 55.6%. The “Positive rate, %” value in the series with DC2.4 cells stood at 83.84%.
In series [1], `CCCCCCCCCCCOC(=O)CCCCCCCN(CCCCCCCC(=O)OCCCCCCCCCCC)CCCN(CCCO)CCCN(CCCCCCCC(=O)OCCCCCCCCCCC)CCCCCCCC(=O)OCCCCCCCCCCC` [Example 98, Tetraundecyl 8,8',8",8"-(((3-hydroxypropyl)azanediyl)di(propane-3,1-diyl))di(azanetriyl)tetraoctanoate] registered a PDI of 0.14 and a Particle size of 89.51. In addition, the “Encapsulation rate, %” value in series [2] came out at 91.32%. Also, the viability at 24 h in series [3] is 96.9%. Also, the “Positive rate, %” value in the series on DC2.4 cells was determined as 92.36%.
Taken in the same sequence, the figures for `CCCCCCCCCCCOC(=O)CCCCCCN(CCCO)CCCN(CCCCCCC(=O)OCCCCCCCCCCC)CCCCCCC(=O)OCCCCCCCCCCC` [Example 36] were 0.16, 89.30, 99.39%, 94.2% and 93.6%.
In series [1], `CCCCCCCCCCCOC(=O)CCCCN(CCO)CCCN(CCCCC(=O)OCCCCCCCCCCC)CCCCC(=O)OCCCCCCCCCCC` [Example 107] yielded a PDI of 0.13. In series [2], the “Encapsulation rate, %” value is reported as 95.47%. In addition, the viability at 24 h in series [3] worked out at 92.9%. In addition, in the series with DC2.4 cells, the “Positive rate, %” value came to 92.10%.
